Broadly, the Ki is a dissociation constant, usually derived from enzyme kinetics or from competition with a known ligand.

Ki data for 1 molecule are collected here from publication PMC4675670 (Science translational medicine, 2015).

Assay [1] has as its target cytoplasmic prolyl-tRNA synthetase (PfcPRS, PF3D7_1213800) (Plasmodium falciparum, UniProt Q8I5R7, L482H). Nature of the assay: biochemical assay on purified recombinant mutant enzyme.
Assay [2] concerns the target cytoplasmic prolyl-tRNA synthetase (PfcPRS, PF3D7_1213800) (Plasmodium falciparum, UniProt Q8I5R7). Nature of the assay: biochemical assay on purified recombinant enzyme.
The target in assay [3] is human EPRS (bifunctional glutamyl-prolyl-tRNA synthetase) (Homo sapiens, UniProt P07814). Description: biochemical assay.
human EPRS (bifunctional glutamyl-prolyl-tRNA synthetase), sequence (P07814 whole entry): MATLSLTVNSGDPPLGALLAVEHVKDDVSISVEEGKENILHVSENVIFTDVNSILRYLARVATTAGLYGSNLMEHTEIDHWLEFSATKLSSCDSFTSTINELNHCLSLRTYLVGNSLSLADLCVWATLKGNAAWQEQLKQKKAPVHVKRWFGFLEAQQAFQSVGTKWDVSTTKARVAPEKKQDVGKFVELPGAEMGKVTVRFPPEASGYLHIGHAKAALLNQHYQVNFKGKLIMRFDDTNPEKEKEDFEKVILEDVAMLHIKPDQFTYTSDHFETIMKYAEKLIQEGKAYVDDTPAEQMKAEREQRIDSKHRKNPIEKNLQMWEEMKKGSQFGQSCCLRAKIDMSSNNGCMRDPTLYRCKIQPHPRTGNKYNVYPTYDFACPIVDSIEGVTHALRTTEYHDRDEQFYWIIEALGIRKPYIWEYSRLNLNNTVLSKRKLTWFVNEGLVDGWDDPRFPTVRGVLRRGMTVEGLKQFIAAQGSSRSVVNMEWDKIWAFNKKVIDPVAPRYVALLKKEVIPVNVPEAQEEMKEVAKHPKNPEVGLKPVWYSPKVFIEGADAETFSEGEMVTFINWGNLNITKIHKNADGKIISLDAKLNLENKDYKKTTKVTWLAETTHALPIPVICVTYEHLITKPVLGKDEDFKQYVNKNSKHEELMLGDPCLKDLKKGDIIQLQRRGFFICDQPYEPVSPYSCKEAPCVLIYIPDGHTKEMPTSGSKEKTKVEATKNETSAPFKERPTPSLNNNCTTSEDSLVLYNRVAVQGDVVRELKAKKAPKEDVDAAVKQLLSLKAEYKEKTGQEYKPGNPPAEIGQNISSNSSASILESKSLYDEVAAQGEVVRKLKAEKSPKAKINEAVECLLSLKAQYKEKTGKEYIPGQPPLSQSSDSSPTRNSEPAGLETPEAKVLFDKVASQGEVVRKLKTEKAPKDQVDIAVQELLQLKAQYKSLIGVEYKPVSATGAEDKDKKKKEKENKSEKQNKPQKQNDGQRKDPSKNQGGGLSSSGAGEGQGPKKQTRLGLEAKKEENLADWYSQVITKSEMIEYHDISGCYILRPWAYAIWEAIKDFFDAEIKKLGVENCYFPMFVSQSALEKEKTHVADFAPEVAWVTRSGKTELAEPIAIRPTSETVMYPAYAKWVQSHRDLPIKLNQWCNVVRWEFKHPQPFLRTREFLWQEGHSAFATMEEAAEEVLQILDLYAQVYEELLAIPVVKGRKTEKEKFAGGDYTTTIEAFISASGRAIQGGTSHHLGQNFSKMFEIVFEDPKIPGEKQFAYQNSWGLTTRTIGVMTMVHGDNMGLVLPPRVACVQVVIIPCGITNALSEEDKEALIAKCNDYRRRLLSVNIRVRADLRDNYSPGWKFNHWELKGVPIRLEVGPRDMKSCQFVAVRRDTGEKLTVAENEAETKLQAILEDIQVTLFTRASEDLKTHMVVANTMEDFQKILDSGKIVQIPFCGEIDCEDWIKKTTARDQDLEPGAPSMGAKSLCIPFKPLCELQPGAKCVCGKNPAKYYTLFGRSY

In the case of `O=c1c2cc(Cl)c(Br)cc2ncn1C[C@@H](O)C[C@H]1NCCC[C@@H]1O` [halofuginol], the Ki in assay [1] came to 1120 nM; in assay [2], 71.1 nM; in assay [3] it was 65.7 nM.
